# Measured values published in US11839210B1, “Plant growth promoter with strigolactones regulation activities” (King Abdullah University of Science and Technology, priority 2017, dated 2023).
# Experiments:
# [1] = test system: epi-5DS (5-deoxystrigol); assay: LC-MS/MS levels of epi-5DS in rice root exudates and roots; assay type: in vivo; details: −Pi, 5 μM zaxinone
# Description: (§1) For the analysis of SLs, one week-old seedlings were further transferred into 50 ml falcon tube (three seedlings per tube) containing Hoagland nutrient solution with K2HPO4·2H2O (+Pi) and grown in the growth cabinet for one week. The rice seedlings were then subjected to phosphate deficiency for another one week period. On the day of root exudates collection, rice seedlings were first treated with 5 μM zaxinone for 6 h and then root exudates and root tissues were collected from each tube for LC-MS/MS analysis and Striga bioassays.
# For the quantification of 4-deoxyorobanchol in rice root exudates, 50 ml of root exudate spiked with 0.672 ng of D6-5-deoxystrigol, was brought on a 500 mg/3 ml fast SPE C18 column preconditioned with 6 ml of methanol and 6 ml of water. After washing with 6 ml of water, strigolactones were eluted in 5 ml of acetone. The 4-deoxyorobanchol fraction (acetone-water solution) was concentrated to SLs aqueous solution (˜1 ml), followed by extraction with 1 ml of ethyl acetate. Then 750 μl of 4-deoxyorobanchol enriched organic phase was transferred to a 1.5 ml tube and evaporated to dryness under vacuum. The residue was dissolved in 100 μl of acetonitrile:water (25:75, v:v) and filtered through a 0.22 μm filter for LC-MS/MS analysis.
# For the quantification of 4-deoxyorobanchol in rice root, plant tissue material was lyophilized and ground. 30 mg root tissue spiked with 0.672 ng of D6-5-deoxystrigol was extracted with 2 ml of ethyl acetate in an ultrasound bath (Branson 3510 ultrasonic bath) for 15 minutes, followed by centrifugation for 8 minutes at 3800 rpm at 4° C. The supernatant was collected and the pellet was re-extracted with 2 ml of ethyl acetate. The two supernatants were then combined and dried under vacuum. The residue was dissolved in 100 μl of ethyl acetate and 2 ml of hexane. The resulting extract solution was loaded on a Silica gel SPE column (500 mg/3 ml) preconditioned with 3 ml of ethyl acetate and 3 ml of Hexane. After washing with 3 ml of Hexane, 4-deoxyorobanchol was eluted in 3 ml of ethyl acetate and evaporated to dryness under vacuum. The residue was re-dissolved in 200 μl of acetonitrile:water (25:75, v:v) and filtered through a 0.22 μm filter for LC-MS/MS analysis.
# 4-Deoxyorobanchol was analyzed by using HPLC-Q-Trap-MS/MS with MRM mode. Chromatographic separation was achieved on an Agilent 1200 HPLC system with an Acquity UPLC BEH C18 column (50×2.1 mm; 1.7 μm; Waters Corp.). Mobile phases consisted of water:acetonitrile (95:5, v:v, A) and acetonitrile (B), both containing 0.1% formic acid. […]
# The levels of epi-5DS (5-deoxystrigol) in root exudates (FIG. 15A) and roots (FIG. 15B) for WT and zas mutant rice under −Pi conditions (phosphate deficient) with zaxinone (5 μM) treatment were determined by LC-MS/MS. […]
# [2] = test system: Striga hermonthica seeds; assay: Striga hermonthica seed germination bioassay with rice root exudates; assay type: in vivo
# Description: as §1
# The Striga seed germination bioassay was carried out in the following manner After 10 days of pre-conditioning (30° C. under moisture for 10 days), Striga seeds were supplied with 50 μl of SL collected from root exudates of zaxinone treated and non-treated wild-types and zas mutants. After SLs application, Striga seeds were incubated at 30° C. in the dark for two days. Germinated (seeds with radicle) and non-germinated seeds were counted under a binocular to calculate germination rates (%).
# [3] = test system: Striga hermonthica; assay: Striga hermonthica infection in rice (pots with Striga infested soil); assay type: in vivo, Striga hermonthica on rice cv. IAC-165; details: 10 μM zaxinone
# Description: About 10 mg (4000) of Striga seeds were thoroughly mixed in 2 L soil and sand mixture (1:1), and added to a 3 L plastic pot. The pots with Striga seeds were kept under moist conditions at 35° C. for 10 days. Five days-old three rice seedlings (Oryza sativa L. cv. IAC-165) were then planted in the middle of each pot. A stock of 10 mM of zaxinone was prepared by mixing with an emulsifier (cyclohexanone+Atlas G1086). Three days after rice planting, zaxinone was applied at 10 μM through 20 ml water in each pot. Zaxinone was applied twice a week for up-to five weeks. Striga emergences were recorded six weeks after rice planting.
structure (smiles),measurement,setting,value
"CC(=O)/C=C/C=C(C)/C=C/C1=C(C)C[C@@H](O)CC1(C)C [zaxinone, 3-OH-β-apo-13-carotenone]","decrease of epi-5DS level in root exudates, mock to zaxinone",[1]; WT rice,around 75%
same,"decrease of epi-5DS level in roots, mock to zaxinone",[1]; WT rice,around 50%
same,"decrease of epi-5DS level in root exudates, mock to zaxinone",[1]; zas mutant rice,approximately 64%
same,"decrease of epi-5DS level in roots, mock to zaxinone",[1]; zas mutant rice,around 75%
same,decrease in germination rate of S. hermonthica seeds vs mock-treated culture medium,[2]; culture medium from zaxinone treated WT rice,approximately 50%
same,decreases in germination rates of S. hermonthica seeds vs mock,[2]; culture medium from zaxinone treated WT rice and zas mutant rice (both together),40-50%
same,decrease in germination rate of S. hermonthica seeds vs mock-treated culture medium,[2]; culture medium from zaxinone treated zas mutant rice,approximately 40%
same,germination of Striga seeds exposed to root exudates,"[2]; exudates from zaxinone treated zas mutant (zas/Zax), phosphate-starved, 5 μM",decreased to levels near the germination rates for the wild-type control
same,germinating activity of root exudates on Striga hermonthica seeds,"[2]; zas exudates, normal phosphorus (+Pi), 5 μM zaxinone, exudates diluted 9 times",decreased germinating activity of zas exudates (zas/Zax) to a level below that of the wild-type sample
same,lowering of Striga seed germinating activity of root exudates,"[2]; zas mutant exudates, phosphate-starved, 5 μM zaxinone, 6 h",40%
same,reduction of number of emerging Striga plants vs untreated control,[3]; rice cv. IAC-165 in pots with Striga infested soil,around 80%
same,number of emerging Striga plants,"[3]; six-week old rice cv. IAC-165 in soil, mock around 15-25",less than 10
